According to US20160009674A1, “PROTOTYPICAL BRAIN PROTECTIVE ACTIVITY OF TETRAHYDRO-N-METHYL-2,2-DIPHENYL-3-FURANOMETHANAMINE (AE37MET)” (priority 2013, published 2016):
“Also recorded” adds a separate entry of the source.

Tests used:
[1] = target: N-methyl-D-aspartate (NMDA) receptors; test: NMDA receptor affinity; format: binding
brain ischemia = brain ischemia in mice; format: in vivo; details: for neuroprotection against mice brain ischemia: dose not given
[2] = test system: NMDA (10 μM) induced functional excitotoxicity, hippocampal slices; test: NMDA (10 μM) induced functional excitotoxicity in rat hippocampal slices; details: for neuroprotection against NMDA induced functional excitotoxicity: hippocampal slices
sigma-1 [3] = target: T1, sigma-1 (Homo sapiens, UniProt Q99720); test: sigma-1 agonistic activity
hippocampal slices = test: in vitro evaluation of the compounds' own functional excitotoxicity on hippocampal slices
sigma-1 [4] = target: T1, sigma-1; test: sigma-1 receptor affinity (binding)
sigma-2 receptors = sigma-2 receptors (Homo sapiens, UniProt Q5BJF2); test: sigma-2 receptor affinity (binding)
sodium channels = test: sodium channel affinity; format: binding
M2 muscarinic receptors [5] = target: T2, M2 muscarinic receptors (Homo sapiens, UniProt P08172); test: M2 muscarinic receptor affinity; format: binding
T2 sequence (P08172 1-466): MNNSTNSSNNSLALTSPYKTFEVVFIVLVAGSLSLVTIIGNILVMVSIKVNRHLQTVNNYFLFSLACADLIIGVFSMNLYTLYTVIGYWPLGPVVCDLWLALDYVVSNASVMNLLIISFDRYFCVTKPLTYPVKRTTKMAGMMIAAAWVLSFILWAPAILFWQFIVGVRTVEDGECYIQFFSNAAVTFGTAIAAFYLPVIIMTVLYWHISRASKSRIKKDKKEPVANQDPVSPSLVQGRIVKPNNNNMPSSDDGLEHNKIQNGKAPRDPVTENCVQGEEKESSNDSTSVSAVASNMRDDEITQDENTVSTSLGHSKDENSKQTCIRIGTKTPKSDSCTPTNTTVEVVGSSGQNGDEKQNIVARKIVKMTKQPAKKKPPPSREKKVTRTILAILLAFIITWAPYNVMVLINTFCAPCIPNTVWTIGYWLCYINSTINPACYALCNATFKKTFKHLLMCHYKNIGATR

M3 muscarinic receptors [6] = target: M3 muscarinic receptors (Homo sapiens, UniProt P20309); test: M3 muscarinic receptor affinity; format: binding
M2 muscarinic receptors [7] = target: T3, M2 muscarinic receptors (Cavia porcellus, UniProt H0VRN8); test: functional M2 antagonism, guinea pig left atria
T3 construct: from tissue; host or cells: guinea pig left atria
T3 sequence (H0VRN8 1-466): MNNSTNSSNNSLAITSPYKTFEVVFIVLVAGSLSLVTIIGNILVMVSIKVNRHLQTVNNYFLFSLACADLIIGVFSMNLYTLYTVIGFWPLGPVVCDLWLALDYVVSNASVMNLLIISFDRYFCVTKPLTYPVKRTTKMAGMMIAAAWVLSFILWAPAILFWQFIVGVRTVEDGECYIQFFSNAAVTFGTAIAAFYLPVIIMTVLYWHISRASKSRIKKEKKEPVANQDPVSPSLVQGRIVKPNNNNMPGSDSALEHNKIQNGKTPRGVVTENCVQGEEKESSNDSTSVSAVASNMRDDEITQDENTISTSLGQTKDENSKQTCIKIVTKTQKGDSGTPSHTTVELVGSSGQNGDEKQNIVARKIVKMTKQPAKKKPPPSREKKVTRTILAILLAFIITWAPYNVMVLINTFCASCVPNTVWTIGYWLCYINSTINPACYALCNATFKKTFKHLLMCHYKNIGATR

M3 muscarinic receptors [8] = target: T4, M3 muscarinic receptors (Cavia porcellus, UniProt H0W1Z3); test: functional M3 antagonism, guinea pig ileum
T4 construct: from tissue; host or cells: guinea pig ileum

[9] = test system: mitochondrial toxicity of pentylenetetrazole (PTZ); test: latency of lethality of pentylenetetrazole (PTZ) in mice; format: in vivo; details: PTZ 130 mg/kg ip
[10] = test system: Aβ25-35 induced amnesia and neurotoxicity; test: Aβ25-35 induced amnesia and neurotoxicity in mice (Y-maze, step-through); format: in vivo
MES convulsions = test: Maximal Electrochoc Seizures (MES) in mice; format: in vivo; details: 10 to 30 mg/kg po
PTZ convulsions = test: Pentylenetetrazole (PTZ) convulsions in mice; format: in vivo; details: 10 to 30 mg/kg po
[11] = test system: M2 and M3 muscarinic receptors in the periphery; test: antagonism of peripheral M2 and M3 muscarinic receptors in mice; format: in vivo; details: from 1 to 10 mg/kg ip
immobility = test: forced swimming (Porsolt) test in mice; format: in vivo; details: from 5 mg/kg po
[12] = memory perturbations in mice; details: 0.1 to 45 mg/kg, per os

T1 sequence (Q99720 whole entry): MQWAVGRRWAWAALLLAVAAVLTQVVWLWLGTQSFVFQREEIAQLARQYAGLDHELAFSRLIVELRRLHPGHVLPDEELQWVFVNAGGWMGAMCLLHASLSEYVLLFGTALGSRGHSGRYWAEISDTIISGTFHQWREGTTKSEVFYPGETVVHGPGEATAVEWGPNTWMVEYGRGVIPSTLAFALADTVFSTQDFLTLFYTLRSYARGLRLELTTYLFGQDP
Chain of M3 muscarinic receptors (Homo sapiens, UniProt P20309) (P20309 whole entry): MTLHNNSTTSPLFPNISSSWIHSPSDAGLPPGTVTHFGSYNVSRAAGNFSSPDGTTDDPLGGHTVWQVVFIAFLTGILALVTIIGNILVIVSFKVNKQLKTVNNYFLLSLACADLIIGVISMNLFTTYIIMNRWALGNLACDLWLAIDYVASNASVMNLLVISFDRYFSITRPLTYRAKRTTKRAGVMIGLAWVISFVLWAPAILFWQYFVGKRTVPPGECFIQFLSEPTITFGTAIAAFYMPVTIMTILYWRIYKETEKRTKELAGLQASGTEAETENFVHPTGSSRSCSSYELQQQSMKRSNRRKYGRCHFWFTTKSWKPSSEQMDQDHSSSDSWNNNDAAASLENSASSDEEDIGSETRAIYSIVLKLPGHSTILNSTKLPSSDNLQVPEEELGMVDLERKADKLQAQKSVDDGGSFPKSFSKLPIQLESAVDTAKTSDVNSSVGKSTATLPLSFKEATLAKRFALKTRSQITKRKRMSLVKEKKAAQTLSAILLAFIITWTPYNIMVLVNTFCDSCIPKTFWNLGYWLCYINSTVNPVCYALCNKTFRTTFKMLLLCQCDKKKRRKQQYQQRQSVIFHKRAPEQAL
Chain of sigma-2 receptors (Q5BJF2 whole entry): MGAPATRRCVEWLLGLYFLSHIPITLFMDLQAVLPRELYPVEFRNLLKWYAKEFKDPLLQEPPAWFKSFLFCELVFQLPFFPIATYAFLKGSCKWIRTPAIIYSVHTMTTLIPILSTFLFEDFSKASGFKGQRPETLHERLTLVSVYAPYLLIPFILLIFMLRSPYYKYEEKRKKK
T4 sequence (H0W1Z3 1-590): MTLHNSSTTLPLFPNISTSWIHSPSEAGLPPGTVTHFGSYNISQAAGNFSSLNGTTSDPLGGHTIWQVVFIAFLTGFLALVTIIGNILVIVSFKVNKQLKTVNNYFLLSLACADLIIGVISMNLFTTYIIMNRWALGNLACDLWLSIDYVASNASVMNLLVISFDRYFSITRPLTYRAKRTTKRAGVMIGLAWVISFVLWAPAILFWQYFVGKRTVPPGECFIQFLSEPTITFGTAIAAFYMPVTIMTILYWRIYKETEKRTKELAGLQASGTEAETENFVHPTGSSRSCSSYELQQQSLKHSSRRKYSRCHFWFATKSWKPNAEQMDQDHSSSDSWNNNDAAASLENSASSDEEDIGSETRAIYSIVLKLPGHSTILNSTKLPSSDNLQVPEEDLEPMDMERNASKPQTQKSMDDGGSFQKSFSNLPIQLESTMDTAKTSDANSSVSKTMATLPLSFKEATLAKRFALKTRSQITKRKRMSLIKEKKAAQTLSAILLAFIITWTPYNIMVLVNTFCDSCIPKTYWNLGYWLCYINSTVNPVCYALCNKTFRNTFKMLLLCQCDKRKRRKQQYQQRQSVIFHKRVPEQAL

## CN(C)CC1COC(c2ccccc2)(c2ccccc2)C1 (stereo not shown) [AE14, tetrahydro-N,N-dimethyl-5,5-diphenyl-3-furanomethanamine]
[1]
  IC50: > 10 µM
Brain ischemia
  neuroprotection against mice brain ischemia: inactive
[2]
  neuroprotection against NMDA induced functional excitotoxicity: no significant neuroprotection
sigma-1 [3]
  sigma-1 agonistic activity: high and selective sigma-1 agonistic activity
Hippocampal slices
  excitotoxic effects of the compound itself (functional excitotoxicity): significant excitoneurotoxic effects

## CN(C)CC1CCOC1(c1ccccc1)c1ccccc1 (stereo not shown) [AE37, tetrahydro-N,N-dimethyl-2,2-diphenyl-3-furanomethanamine]
[1]
  IC50: 8 µM
Brain ischemia
  neuroprotection against mice brain ischemia: inactive
[2]
  neuroprotection against NMDA induced functional excitotoxicity: no significant neuroprotection
sigma-1 [3]
  sigma-1 agonistic activity: sub-micromolar and selective sigma-1 agonism
Hippocampal slices
  excitotoxic effects of the compound itself (functional excitotoxicity): significant excitoneurotoxic effects

## CNCC1CCOC1(c1ccccc1)c1ccccc1 (stereo not shown) [AE37Met, tetrahydro-N-methyl-2,2-diphenyl-3-furanomethanamine]
sigma-1 [4]
  IC50: 0.67 µM
sigma-2 receptors
  IC50: > 10 µM
[1]
  IC50: 1 µM
Sodium channels
  IC50: 5.7 µM
M2 muscarinic receptors [5]
  IC50: 2.77 µM
M3 muscarinic receptors [6]
  IC50: 4.35 µM
M2 muscarinic receptors [7]
  concentration from which significant functional antagonism (M2): ≥ 3.0 µM
M3 muscarinic receptors [8]
  concentration from which significant functional antagonism (M3): ≥ 3.0 µM
[9]; AE37Met 3.10 mg/kg po (so in the source)
  increase of latency of lethality of PTZ: 3.10 fold
[9]; AE37Met 30 mg/kg po
  increase of latency of lethality of PTZ: 18 fold
[10]; 0.3 to 3 mg/kg ip, mice
  antagonism of Aβ25-35 induced amnesia and neurotoxicity: antagonized
[10]; co-administered with Rivastigmine or Donepezil, Y-maze, step-through, intracerebral soluble amyloid 25-35, mice
  antiamnesic action on co-administration with IAChEases: higher than the sum of the antiamnesic effects
MES convulsions
  protection against MES convulsions: protected; also recorded: high protective effects
PTZ convulsions
  protection against PTZ convulsions: protected; also recorded: high protective effects
Brain ischemia; 5 to 15 mg/kg ip
  protection against brain ischemia: protected; also recorded: significant antagonism
[2]; AE37Met 1 to 10 μM, rat hippocampal slices
  antagonistic effects against NMDA induced functional excitotoxicity: first antagonistic effects
[2]
  neuroprotection against NMDA induced functional excitotoxicity: high dose (concentration)-dependant neuroprotection
[11]
  antagonistic effects on M2 and M3 muscarinic receptors in the periphery: antagonistic effects
immobility
  anti-immobility activity in the Porsolt test: high anti-immobility activity
[12]
  memory perturbations: no memory perturbations
Hippocampal slices
  excitotoxic effects of the compound itself (functional excitotoxicity): no excitotoxic effects
